Experimental data taken from patent publication US12673946B2, “Pyrimidin-4(3H)-one derivatives as TRPV4 antagonists” (RaQualia Pharma Inc., priority 2020, dated 2026).

Molecular target: T1, human TRPV4 (Homo sapiens, UniProt Q9HBA0)
T1 construct: host or cells: tetracycline-inducible Flp-In T-REx 293 cells
Assay: Hypotonicity-induced Ca2+ influx (Fluo-4, FDSS)
Format: cell-based
In short: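 Flp-In T-REx 293 cells with tetracycline-induced human TRPV4, loaded with Fluo-4 for 60 min at 25 °C. Compound added 5 min before hypotonic mannitol/CaCl2 solution. Ca2+ signal recorded for 4.5 min on FDSS.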

[1] = Flp-In T-REx 293 cells expressing human TRPV4, examples listed under heading 'Human IC50<50 nM'
[2] = Flp-In T-REx 293 cells stably expressing human TRPV4, compounds listed by potency bin (<10 nM Tables 96-1/96-2, <3 nM Table 97)

T1 sequence (Q9HBA0 whole entry): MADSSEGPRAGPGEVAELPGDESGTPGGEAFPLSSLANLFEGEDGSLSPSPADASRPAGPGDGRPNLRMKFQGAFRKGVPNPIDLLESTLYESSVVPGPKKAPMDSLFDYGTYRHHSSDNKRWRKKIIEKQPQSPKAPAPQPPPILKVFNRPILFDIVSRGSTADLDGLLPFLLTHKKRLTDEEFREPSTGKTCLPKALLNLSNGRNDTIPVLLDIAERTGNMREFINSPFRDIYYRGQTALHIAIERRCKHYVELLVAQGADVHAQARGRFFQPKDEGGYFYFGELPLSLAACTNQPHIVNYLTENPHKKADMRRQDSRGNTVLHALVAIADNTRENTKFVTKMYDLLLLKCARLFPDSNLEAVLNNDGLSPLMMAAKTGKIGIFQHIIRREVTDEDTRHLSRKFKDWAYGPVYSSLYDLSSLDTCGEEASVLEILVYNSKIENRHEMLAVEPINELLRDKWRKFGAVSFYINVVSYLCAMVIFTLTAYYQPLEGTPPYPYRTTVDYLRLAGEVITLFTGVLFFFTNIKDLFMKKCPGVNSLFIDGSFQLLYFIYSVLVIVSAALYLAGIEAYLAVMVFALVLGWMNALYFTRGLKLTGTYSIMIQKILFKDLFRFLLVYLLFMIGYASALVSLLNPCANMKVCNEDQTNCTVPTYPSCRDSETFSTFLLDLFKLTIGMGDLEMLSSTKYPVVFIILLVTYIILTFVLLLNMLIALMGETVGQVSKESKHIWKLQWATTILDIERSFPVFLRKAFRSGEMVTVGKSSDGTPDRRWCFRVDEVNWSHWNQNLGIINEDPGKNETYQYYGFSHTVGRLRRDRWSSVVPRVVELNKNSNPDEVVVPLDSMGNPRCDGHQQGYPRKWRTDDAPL

| IC50 [1] | IC50 [2] | Compound |
| --- | --- | --- |
| < 50 nM | < 10 nM | O=C([C@H](O)c1cccc(-c2cccc(C(F)(F)F)c2)c1)N1CCCc2c(nc(C3(c4ccccc4)CC3)[nH]c2=O)C1 [49-54] |
| < 50 nM | – | O=C([C@H](O)c1cccc(C(F)(F)F)c1)N1CCCc2nc(C3(c4cccc(-c5cncnc5)c4)CC3)[nH]c(=O)c2C1 [42-33] |
| < 50 nM | – | O=C(N1CCc2nc(C3(c4ccccc4)CC3)[nH]c(=O)c2C1)C(F)(F)c1cccc(C(F)(F)F)c1 [20-9] |
| < 50 nM | < 10 nM | O=C([C@H](O)c1cccc(-c2ccc(OCc3ccccc3)cc2)c1)N1CCc2nc(C3(c4ccccc4)CC3)[nH]c(=O)c2C1 [44-107] |
| < 50 nM | < 10 nM | CC(C)(C)c1cccc(-c2cccc(CC(=O)N3CCCc4nc(C5(c6ccccc6)CC5)[nH]c(=O)c4C3)c2)c1 [57-4] |
| < 50 nM | < 3 nM | O=C([C@H](O)c1cccc(-c2cccc(C(F)(F)F)n2)c1)N1CCCc2nc(C3(c4ccccc4)CC3)[nH]c(=O)c2C1 [49-22] |
| < 50 nM | < 10 nM | O=C(Cc1cccc(S(F)(F)(F)(F)F)c1)N1CCCc2nc(C3(c4ccccc4)CC3)[nH]c(=O)c2C1 [17-31] |
| < 50 nM | < 10 nM | O=C([C@H](O)c1cccc(C(F)(F)F)c1)N1CCCc2nc(C3(c4cncc(C(F)(F)F)c4)CC3)[nH]c(=O)c2C1 [19-13] |
| < 50 nM | < 10 nM | O=C(C(O)c1cccc(C(F)(F)F)c1F)N1CCCc2nc(C3(c4cccc(F)c4)CC3)[nH]c(=O)c2C1 (stereo not drawn) [17-10] |
| < 50 nM | – | O=C(Cc1cccc(OC(F)(F)F)c1)N1CCCc2nc(C3(c4cccc(Cl)c4)CC3)[nH]c(=O)c2C1 [17-112] |
| < 50 nM | < 10 nM | CC(C)c1csc(C2(c3nc4c(c(=O)[nH]3)CN(C(=O)C(O)c3cccc(C(C)(C)C)c3)CC4)CC2)c1 (stereo not drawn) [15-24] |
| < 50 nM | < 10 nM | O=C(N1CCc2nc(C3(c4cncc(-c5ccccc5)c4)CC3)[nH]c(=O)c2C1)C(F)(F)c1cccc(C(F)(F)F)c1 [22-6] |
| < 50 nM | < 3 nM | O=C([C@H](O)c1cccc(-c2ccc(Cl)cc2)c1)N1CCCc2nc(C3(c4ccccc4)CC3)[nH]c(=O)c2C1 [49-18] |
| < 50 nM | < 10 nM | O=C(C(O)c1cccc(SC(F)(F)F)c1)N1CCCc2nc(C3(c4cccc(Cl)c4)CC3)[nH]c(=O)c2C1 (stereo not drawn) [17-28] |
| < 50 nM | < 10 nM | O=C([C@H](O)c1cccc(C(F)(F)F)c1)N1CCCc2nc(C3(c4cc(C5CCCCC5)cs4)CC3)[nH]c(=O)c2C1 [18-4] |
| < 50 nM | < 10 nM | COCCCc1csc(C2(c3nc4c(c(=O)[nH]3)CN(C(=O)[C@H](O)c3cccc(C(F)(F)F)c3)CCC4)CC2)c1 [30-10] |
| < 50 nM | < 3 nM | O=C([C@H](O)c1cccc(Cl)c1)N1CCCc2nc(C3(c4cc(-c5ccccc5)cs4)CC3)[nH]c(=O)c2C1 [39-1] |
| < 50 nM | < 10 nM | O=C([C@H](O)c1cccc(-c2csc3ccccc23)c1)N1CCCc2nc(C3(c4ccccc4)CC3)[nH]c(=O)c2C1 [49-24] |
| < 50 nM | < 10 nM | CC(C(=O)N1CCCc2nc(C3(c4cccc(Cl)c4)CC3)[nH]c(=O)c2C1)c1cccc(C(F)(F)F)c1 (stereo not drawn) [17-88] |
| < 50 nM | < 10 nM | O=C(N1CCCc2nc(C3(c4ccccc4)CC3)[nH]c(=O)c2C1)C(F)(F)c1cccc(Cl)c1 [20-7] |
| < 50 nM | < 3 nM | O=C([C@H](O)c1cccc(-c2ccc3c(c2)OC(F)(F)O3)c1)N1CCCc2nc(C3(c4cccc(Cl)c4)CC3)[nH]c(=O)c2C1 [50-15] |
| < 50 nM | < 10 nM | CC(C)c1csc(C2(c3nc4c(c(=O)[nH]3)CN(C(=O)[C@H](O)c3cccc(-c5cccc(OC(F)(F)F)c5)c3)CCC4)CC2)c1 [54-2] |
| < 50 nM | – | O=C(C(O)c1cccc(Cl)c1F)N1CCc2nc(C3(c4cccc(Cl)c4)CC3)[nH]c(=O)c2C1 (stereo not drawn) [14-28] |
| < 50 nM | < 10 nM | O=C([C@H](O)c1cccc(C(F)(F)F)c1)N1CCCc2nc(C3(c4cccc(C5=CCN(C(=O)N6CCCCC6)CC5)c4)CC3)[nH]c(=O)c2C1 [42-73] |
| < 50 nM | < 10 nM | O=C(Cc1cccc(-c2cccc(C(F)(F)F)n2)c1)N1CCCc2nc(C3(c4cccc(Cl)c4)CC3)[nH]c(=O)c2C1 [57-7] |
| < 50 nM | – | Cc1ccc(-c2cccc([C@@H](O)C(=O)N3CCc4nc(C5(c6ccccc6)CC5)[nH]c(=O)c4C3)c2)cc1C [44-114] |
| < 50 nM | < 10 nM | O=C(C(O)c1cccc(-c2cccc(OC(F)(F)F)c2)c1)N1CCc2nc(C3(c4cccc(F)c4)CC3)[nH]c(=O)c2C1 (stereo not drawn) [14-7] |
| < 50 nM | < 3 nM | O=C([C@H](O)c1cccc(Cl)c1)N1CCCc2nc(C3(c4cccc(C5CCCCC5)c4)CC3)[nH]c(=O)c2C1 [29-2, (R)-6-(2-(3-chlorophenyl)-2-hydroxyacetyl)-2-(1-(3-cyclohexylphenyl)cyclopropyl)-3,5,6,7,8,9-hexahydro-4H-pyrimido[5,4-c]azepin-4-one] |

| IC50 [1] | IC50 [2] | Compound |
| --- | --- | --- |
| < 50 nM | < 10 nM | O=C([C@H](O)c1cccc(Cl)c1)N1CCCc2nc(C3(c4cccc(-c5cccc(Cl)c5)c4)CC3)[nH]c(=O)c2C1 [40-6] |
| < 50 nM | – | O=C(C(O)c1cccc(S(F)(F)(F)(F)F)c1)N1CCc2nc(C3(c4cccc(F)c4)CC3)[nH]c(=O)c2C1 (stereo not drawn) [14-23] |
| < 50 nM | < 3 nM | O=C(C(O)c1cccc(-c2cccc(OC(F)(F)F)c2)c1)N1CCc2nc(C3(c4cccs4)CC3)[nH]c(=O)c2C1 (stereo not drawn) [15-28] |
| < 50 nM | < 3 nM | O=C(C(O)c1cccc(-c2cccc(F)c2)c1)N1CCCc2nc(C3(c4cccc(Cl)c4)CC3)[nH]c(=O)c2C1 (stereo not drawn) [17-5] |
| < 50 nM | – | O=C([C@H](O)c1cccc(F)c1F)N1CCCc2nc(C3(c4ccccc4)CC3)[nH]c(=O)c2C1 [10-6] |
| < 50 nM | – | O=C([C@H](O)c1cccc(C(F)(F)F)c1)N1CCc2nc(C3(c4cncc(C5CCOCC5)c4)CC3)[nH]c(=O)c2C1 [28-5] |
| < 50 nM | – | O=C(C(O)c1cccc(-c2cccc(C(F)(F)F)c2)c1F)N1CCc2nc(C3(c4ccccc4)CC3)[nH]c(=O)c2C1 (stereo not drawn) [44-22] |
| < 50 nM | < 10 nM | CC(C)c1cccc(C2(c3nc4c(c(=O)[nH]3)CN(C(=O)[C@H](O)c3cccc(-c5cccc(F)c5)c3)CCC4)CC2)c1 [51-8] |
| < 50 nM | < 3 nM | CC(C)c1csc(C2(c3nc4c(c(=O)[nH]3)CN(C(=O)[C@H](O)c3cccc(-c5cccc(F)c5)c3)CCC4)CC2)c1 [54-5] |
| < 50 nM | < 10 nM | CC(C)c1cccc(C2(c3nc4c(c(=O)[nH]3)CN(C(=O)C(O)c3cccc(C(F)(F)F)c3F)CCC4)CC2)c1 (stereo not drawn) [17-9] |
| < 50 nM | – | O=C([C@H](O)c1cccc(C(F)(F)F)c1)N1CCCc2nc(C3(c4cc(-c5cccnc5)cs4)CC3)[nH]c(=O)c2C1 [41-2] |
| < 50 nM | – | O=C(COc1ccc(-c2ccccc2)cc1)N1CCCc2nc(C3(c4cccc(Cl)c4)CC3)[nH]c(=O)c2C1 [17-102] |
| < 50 nM | < 10 nM | O=C([C@H](O)c1cccc(-c2cccc(Cl)c2)c1)N1CCCc2nc(C3(c4cccc(Cl)c4)CC3)[nH]c(=O)c2C1 [50-14] |
| < 50 nM | – | O=C(Cc1ccc2ccccc2c1)N1CCCc2nc(C3(c4cccc(Cl)c4)CC3)[nH]c(=O)c2C1 [17-115] |
| < 50 nM | < 3 nM | N#Cc1ccc(-c2cccc([C@@H](O)C(=O)N3CCCc4nc(C5(c6cccc(Cl)c6)CC5)[nH]c(=O)c4C3)c2)cc1 [50-20] |
| < 50 nM | < 10 nM | O=C([C@H](O)c1cccc(C(F)(F)F)c1)N1CCCc2nc(C3(c4cccc(-c5ccc6ccccc6c5)c4)CC3)[nH]c(=O)c2C1 [42-47] |
| < 50 nM | < 10 nM | O=C(Cc1cccc(-c2cccc(Cl)c2)c1)N1CCc2nc(C3(c4cccc(C5CCCCC5)c4)CC3)[nH]c(=O)c2C1 [27-7] |
| < 50 nM | < 3 nM | O=C(N1CCCc2nc(C3(c4cncc(-c5ccccc5)c4)CC3)[nH]c(=O)c2C1)C(F)(F)c1cccc(Cl)c1F [22-7] |
| < 50 nM | < 10 nM | O=C(C(O)c1cccc(-c2cccc(C(F)(F)F)c2)c1)N1CCc2nc(C3(c4cccs4)CC3)[nH]c(=O)c2C1 (stereo not drawn) [15-6] |
| < 50 nM | < 10 nM | O=C([C@H](O)c1cccc(Cl)c1)N1CCc2nc(C3(c4cc(C5CCC(F)(F)CC5)cs4)CC3)[nH]c(=O)c2C1 [23-1, (R)-6-(2-(3-chlorophenyl)-2-hydroxyacetyl)-2-(1-(4-(4,4-difluorocyclohexyl)thiophen-2-yl)cyclopropyl)-5,6,7,8-tetrahydropyrido[4,3-d]pyrimidin-4(3H)-one] |
| < 50 nM | < 10 nM | CC(C)(C)c1cccc(-c2cccc([C@@H](O)C(=O)N3CCCc4c(nc(C5(c6ccccc6)CC5)[nH]c4=O)C3)c2)c1 [49-55] |
| < 50 nM | < 10 nM | CC(C)c1cncc(C2(c3nc4c(c(=O)[nH]3)CN(C(=O)[C@H](O)c3cccc(C(F)(F)F)c3)CCC4)CC2)c1 [19-2] |
| < 50 nM | – | O=C(C(O)c1cccc(-c2cccc(Cl)c2)c1)N1CCc2nc(C3(c4ccccc4)CC3)[nH]c(=O)c2C1 (stereo not drawn) [44-21] |
| < 50 nM | < 10 nM | O=C(Cc1ccccc1OCc1ccccc1)N1CCCc2nc(C3(c4cccc(Cl)c4)CC3)[nH]c(=O)c2C1 [17-82] |
| < 50 nM | – | O=C(C(O)c1cccc(Cl)c1F)N1CCc2nc(C3(c4ccccc4)CC3)[nH]c(=O)c2C1 (single isomer, unassigned) [3-69] |
| < 50 nM | < 10 nM | CC(C)c1cncc(C2(c3nc4c(c(=O)[nH]3)CN(C(=O)[C@H](O)c3cccc(-c5ccc(C(C)(C)C)cc5)c3)CC4)CC2)c1 [47-1] |
| < 50 nM | < 10 nM | O=C(Cc1cccc(-c2ccc(Cl)cc2)c1)N1CCCc2nc(C3(c4cccc(Cl)c4)CC3)[nH]c(=O)c2C1 [17-130] |
